The values below are quoted from earlier work in patent publication EP0438554B1, “NITROGENOUS AMBRUTICINES, PROCESS FOR OBTAINING THEM AND THEIR USE” (Gesellschaft für Biotechnologische Forschung mbH (GBF), priority 1989, dated 1991).

For this series the following is noted: in vitro; S.M. Ringel et al., J. of Antibiotics 30, 371 (1977).

Take `CC[C@H]1O[C@@H](/C(C)=C/[C@H](C)/C=C/[C@H]2[C@@H](C)[C@@H]2/C=C/[C@@H]2O[C@H](CC(=O)O)C[C@H](O)[C@H]2O)CC=C1C` [Ambruticin]: the “antibakterielle Wirkung” value is recorded as “schwach antibakterielle”.
